Values after ≈ are worked out from the molar mass of the structure shown. Active and inactive are the calls of the source. The rule behind the calls is not given here.
Columns and labels:
[1] = Drug concentration in overnight fasted Sprague-Dawley rat spinal cord with streptozotocin induced diabetic peripheral neuropathic mechanical allodynia at 0.3 mg/kg, po measured at 5.5 hrs post dose; format: ADME, organism-based; details: read-out: Ct
[2] = Metabolic stability in rat liver microsomes assessed as CYP450-mediated metabolism by measuring parent compound remaining at 0.5 uM incubated for 10 mins in presence of NADPH by LC-MS/MS analysis; format: ADME; details: read-out: Stability
[3] = Protein binding in human plasma assessed as unbound fraction at 10 uM measured after 5 hrs by LC-MS/MS analysis; format: ADME, cell-free
Rattus norvegicus [4] = assay: Analgesic activity in streptozotocin induced diabetic peripheral neuropathic mechanical allodynia in overnight fasted Sprague-Dawley rat model assessed as reduction in pain response at 3 mg/kg, po measured after 5.5 hrs post treatment; format: functional; parameters: scale not given: the % may be the effect or the level left
Cytochrome P450 3A4 [5] = molecular target: T1, Cytochrome P450 3A4 (Homo sapiens, UniProt P08684); assay: Time dependent inhibition of CYP3A4 (unknown origin) using BSF as substrate measured at 30 mins; format: ADME
[6] = Drug uptake in Spinal cord of CCI induced thermal hyperalgesia Sprague-Dawley rat model assessed as spinal occupancy at 0.1 mg/kg, po measured at 5.75 hrs post dose in presence of [3H]BMT-046091; format: ADME, organism-based; details: in vivo
Cytochrome P450 3A4 [7] = molecular target: T1, Cytochrome P450 3A4; assay: Time dependent inhibition of CYP3A4 (unknown origin) using MDZ as substrate measured at 30 mins; format: ADME
[8] = Volume of distribution at steady state in dog at 2 mg/kg, iv; format: ADME, organism-based, Canis lupus familiaris; details: in vivo, read-out: Vdss
[9] = Metabolic stability in dog liver microsomes assessed as half life; format: ADME, Canis lupus familiaris, Microsome
[10] = molecular target: Hepatic sodium/bile acid cotransporter (Homo sapiens, UniProt Q14973); assay: Inhibition of NTCP (unknown origin)
Rattus norvegicus [11] = assay: Analgesic activity in streptozotocin induced diabetic peripheral neuropathic mechanical allodynia in overnight fasted Sprague-Dawley rat model assessed as reduction in pain response at 1 mg/kg, po measured after 5.5 hrs post treatment; format: functional; parameters: scale not given: the % may be the effect or the level left
[12] = MRT in rat at 2 mg/kg, iv; format: ADME, organism-based; details: in vivo
[13] = AUC (infinity) in dog at 3 mg/kg, po; format: ADME, organism-based, Canis lupus familiaris; parameters: route oral, time infinity, dose 3 mg/kg; details: in vivo
[14] = molecular target: MAP kinase-interacting serine/threonine-protein kinase 1 (Homo sapiens, UniProt Q9BUB5); assay: Inhibition of MNK1 (unknown origin)
Cytochrome P450 = Cytochrome P450 (Homo sapiens, UniProt P04798+P05177+P05181+P08684+P10632+P10635+P11509+P11712+P13584+P20813+P20815+P20853+P24462+P24903+P33260+P33261+P51589+P78329+P98187+Q02928+Q08477+Q16678+Q16696+Q5TCH4+Q6VVX0+Q7Z449+Q8TAV3+Q96SQ9+Q9HB55); assay: Metabolic stability in human liver microsomes assessed as CYP450-mediated metabolism by measuring parent compound remaining at 0.5 uM incubated for 10 mins in presence of NADPH by LC-MS/MS analysis; format: ADME; details: read-out: Stability
[15] = Ratio of drug concentration in spinal cord to plasma in CCI induced thermal hyperalgesia Sprague-Dawley rat model at 0.1 mg/kg, po measured at 5.75 hrs post dose; format: ADME, organism-based
[16] = Ratio of drug concentration in spinal cord to plasma of overnight fasted Sprague-Dawley rat model with streptozotocin induced diabetic peripheral neuropathic mechanical allodynia at 0.1 mg/kg, po measured at 5.5 hrs post dose; format: ADME, organism-based
[17] = Volume of distribution at steady state in rat at 2 mg/kg, iv; format: ADME, organism-based; details: in vivo, read-out: Vdss
[18] = molecular target: Sodium-dependent noradrenaline transporter (Homo sapiens, UniProt P23975); assay: Inhibition of NET (unknown origin); format: toxicity
Cytochrome P450 3A4 [19] = molecular target: T1, Cytochrome P450 3A4; assay: Time dependent inhibition of CYP3A4 (unknown origin) using MDZ as substrate measured at 5 mins; format: ADME
[20] = Protein binding in mouse brain assessed as unbound fraction at 1 uM incubated for 4 hrs by LC-MS/MS analysis; format: ADME, tissue-based
Rattus norvegicus [21] = assay: Analgesic activity in streptozotocin induced diabetic peripheral neuropathic mechanical allodynia in overnight fasted Sprague-Dawley rat model assessed as efficacy at 1 mg/kg, po measured at 5.5 hrs post dose; format: functional
[22] = molecular target: Solute carrier organic anion transporter family member 1B1 (Homo sapiens, UniProt Q9Y6L6); assay: Inhibition of OATP1B1 (unknown origin)
[23] = Tmax in rat at 3 mg/kg, po; format: ADME, organism-based; details: in vivo
[24] = Cmax in Sprague-Dawley rat plasma with CCI induced thermal hyperalgesia at 0.1 mg/kg, po measured at 5.75 hrs post dose; format: ADME, organism-based; parameters: route oral, dose 0.1 mg/kg, time 5.75 hrs
Bile salt export pump = Bile salt export pump (Homo sapiens, UniProt O95342); assay: Inhibition of BSEP (unknown origin)
[25] = molecular target: MAP kinase-interacting serine/threonine-protein kinase 2 (Homo sapiens, UniProt Q9HBH9); assay: Inhibition of MNK2 (unknown origin)
[26] = MRT in dog at 2 mg/kg, iv; format: ADME, organism-based, Canis lupus familiaris; details: in vivo
[27] = Solubility of the compound in PEG400; format: physicochemical
[28] = MRT in monkey at 2 mg/kg, iv; format: ADME, organism-based, Macaca mulatta; details: rhesus monkey, in vivo
[29] = Cmax in naive Sprague-Dawley rat plasma at 10 mg/kg, po measured at 5.25 hrs post dose; format: ADME, organism-based; parameters: route oral, dose 10 mg/kg, time 5.25 hrs
[30] = Drug concentration in naive Sprague-Dawley rat spinal cord at 30 mg/kg, po measured at 5.25 hrs post dose; format: ADME, organism-based; details: read-out: Ct
[31] = Permeability across apical to basolateral side in human Caco-2 cells at 3 uM measured after 2 hrs by LC-MS/MS analysis; format: ADME, cell-based; details: read-out: permeability
Cytochrome P450 2B6 = Cytochrome P450 2B6 (Homo sapiens, UniProt P20813); assay: Inhibition of CYP2B6 (unknown origin); format: ADME
[32] = Apparent elimination half life in mouse at 2 mg/kg, iv; format: ADME, organism-based; details: in vivo, read-out: betat1/2(app) (converted)
[33] = Displacement of 3H-LP-927443 from AAK1 in mouse brain membrane homogenate assessed as inhibition constant at 1 uM incubated for 1 hr by liquid scintillation counter analysis; format: cell membranes
[34] = Cmax in Sprague-Dawley rat plasma with CCI induced thermal hyperalgesia at 0.3 mg/kg, po measured at 5.75 hrs post dose; format: ADME, organism-based; parameters: route oral, dose 0.3 mg/kg, time 5.75 hrs
[35] = Clearance in rat at 2 mg/kg, iv; format: ADME, organism-based; details: in vivo
[36] = AUC (infinity) in rat at 2 mg/kg, iv; format: ADME, organism-based; parameters: time infinity, route intravenous, dose 2 mg/kg; details: in vivo
[37] = Solubility of the compound in FaSSIF; format: physicochemical
Homo sapiens = organism: Homo sapiens; assay: Inhibition of calcium channel (unknown origin) at 10 uM by electrophysiological method relative to control
[38] = Cmax in overnight fasted Sprague-Dawley rat plasma with streptozotocin induced diabetic peripheral neuropathic mechanical allodynia at 1 mg/kg, po measured at 5.5 hrs post dose; format: ADME, organism-based; parameters: route oral, time 5.5 hrs, dose 1 mg/kg
Rattus norvegicus [39] = assay: Analgesic activity in CCI induced thermal hyperalgesia Sprague-Dawley rat model assessed as efficacy at 0.3 mg/kg, po measured at 5.75 hrs post dose; format: functional
[40] = Clearance in monkey at 2 mg/kg, iv; format: ADME, organism-based, Macaca mulatta; details: rhesus monkey, in vivo
Rattus norvegicus [41] = assay: Analgesic activity in CCI induced thermal hyperalgesia Sprague-Dawley rat model assessed as efficacy at 0.1 mg/kg, po measured at 5.75 hrs post dose; format: functional
[42] = Metabolic stability in mouse liver microsomes assessed as half life; format: ADME, Microsome

T1 sequence (P08684 whole entry): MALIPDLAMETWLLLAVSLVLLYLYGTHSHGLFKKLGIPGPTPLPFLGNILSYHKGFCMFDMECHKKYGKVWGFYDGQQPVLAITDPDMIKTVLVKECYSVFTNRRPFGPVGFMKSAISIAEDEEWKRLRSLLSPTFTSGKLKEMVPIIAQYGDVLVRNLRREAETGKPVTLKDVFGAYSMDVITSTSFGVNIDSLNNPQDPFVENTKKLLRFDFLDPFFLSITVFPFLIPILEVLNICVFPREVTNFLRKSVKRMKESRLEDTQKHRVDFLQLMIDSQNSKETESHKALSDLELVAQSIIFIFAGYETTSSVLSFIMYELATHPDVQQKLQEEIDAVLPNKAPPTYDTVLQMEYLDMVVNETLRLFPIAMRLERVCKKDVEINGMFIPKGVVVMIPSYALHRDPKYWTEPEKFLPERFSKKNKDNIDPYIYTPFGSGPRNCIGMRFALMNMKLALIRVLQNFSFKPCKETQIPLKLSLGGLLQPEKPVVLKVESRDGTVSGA
Sequence of MAP kinase-interacting serine/threonine-protein kinase 2 (Q9HBH9 whole entry, looked up): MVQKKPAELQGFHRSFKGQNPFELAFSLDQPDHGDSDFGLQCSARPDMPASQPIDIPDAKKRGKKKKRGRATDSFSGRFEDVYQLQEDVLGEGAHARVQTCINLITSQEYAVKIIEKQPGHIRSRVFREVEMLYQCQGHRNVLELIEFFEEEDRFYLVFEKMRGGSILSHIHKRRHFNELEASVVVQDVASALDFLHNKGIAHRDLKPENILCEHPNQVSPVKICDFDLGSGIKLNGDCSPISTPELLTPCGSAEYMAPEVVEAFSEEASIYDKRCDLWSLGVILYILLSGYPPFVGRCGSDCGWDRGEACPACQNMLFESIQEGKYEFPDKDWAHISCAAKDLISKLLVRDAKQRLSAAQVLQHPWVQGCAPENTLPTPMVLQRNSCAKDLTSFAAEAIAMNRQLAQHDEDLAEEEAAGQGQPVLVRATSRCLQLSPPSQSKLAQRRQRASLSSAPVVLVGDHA
Sequence of Hepatic sodium/bile acid cotransporter (Q14973 whole entry): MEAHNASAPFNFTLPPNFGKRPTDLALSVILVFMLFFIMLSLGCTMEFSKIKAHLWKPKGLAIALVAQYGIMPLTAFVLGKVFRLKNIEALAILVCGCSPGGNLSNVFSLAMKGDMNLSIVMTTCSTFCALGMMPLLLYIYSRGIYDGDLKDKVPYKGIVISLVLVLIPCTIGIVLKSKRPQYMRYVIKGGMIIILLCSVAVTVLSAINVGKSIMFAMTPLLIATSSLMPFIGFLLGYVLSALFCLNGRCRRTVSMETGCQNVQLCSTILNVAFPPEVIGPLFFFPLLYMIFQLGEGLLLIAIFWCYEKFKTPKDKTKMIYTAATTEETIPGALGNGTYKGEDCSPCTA
Sequence of Solute carrier organic anion transporter family member 1B1 (Q9Y6L6 whole entry): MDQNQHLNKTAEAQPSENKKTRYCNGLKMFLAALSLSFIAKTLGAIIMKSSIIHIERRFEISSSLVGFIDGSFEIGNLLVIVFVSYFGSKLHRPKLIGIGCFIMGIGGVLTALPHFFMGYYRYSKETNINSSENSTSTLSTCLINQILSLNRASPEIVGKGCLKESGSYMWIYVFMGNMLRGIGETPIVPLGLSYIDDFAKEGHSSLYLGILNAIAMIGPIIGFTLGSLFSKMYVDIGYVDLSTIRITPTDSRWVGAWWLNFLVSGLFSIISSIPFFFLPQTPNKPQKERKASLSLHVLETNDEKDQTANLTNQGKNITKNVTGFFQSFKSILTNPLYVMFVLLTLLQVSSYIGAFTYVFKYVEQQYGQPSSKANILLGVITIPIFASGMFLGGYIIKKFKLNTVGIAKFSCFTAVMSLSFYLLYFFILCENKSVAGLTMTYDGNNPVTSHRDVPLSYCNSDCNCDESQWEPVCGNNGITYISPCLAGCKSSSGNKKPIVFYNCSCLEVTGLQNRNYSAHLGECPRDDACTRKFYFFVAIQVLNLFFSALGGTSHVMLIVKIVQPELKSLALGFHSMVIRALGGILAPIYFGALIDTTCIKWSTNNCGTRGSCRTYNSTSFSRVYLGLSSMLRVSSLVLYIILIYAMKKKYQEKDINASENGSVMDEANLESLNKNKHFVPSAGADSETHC
Sequence of Sodium-dependent noradrenaline transporter (P23975 whole entry): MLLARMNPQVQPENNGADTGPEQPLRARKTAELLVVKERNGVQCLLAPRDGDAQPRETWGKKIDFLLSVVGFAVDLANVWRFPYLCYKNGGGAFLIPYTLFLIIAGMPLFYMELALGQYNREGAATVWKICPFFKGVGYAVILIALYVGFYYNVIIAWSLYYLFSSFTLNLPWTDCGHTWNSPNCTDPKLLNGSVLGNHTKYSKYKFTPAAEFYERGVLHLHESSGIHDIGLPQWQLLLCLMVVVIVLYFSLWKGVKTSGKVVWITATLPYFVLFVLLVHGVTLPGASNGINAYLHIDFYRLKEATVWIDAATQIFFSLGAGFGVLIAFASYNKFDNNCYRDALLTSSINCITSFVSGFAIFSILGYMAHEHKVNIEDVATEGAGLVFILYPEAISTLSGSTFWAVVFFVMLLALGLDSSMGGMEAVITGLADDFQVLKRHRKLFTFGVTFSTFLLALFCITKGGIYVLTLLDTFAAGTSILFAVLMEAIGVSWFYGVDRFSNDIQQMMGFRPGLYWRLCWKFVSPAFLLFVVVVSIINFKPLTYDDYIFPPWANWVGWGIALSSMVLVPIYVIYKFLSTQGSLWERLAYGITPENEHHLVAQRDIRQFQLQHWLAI
Sequence of Cytochrome P450 2B6 (P20813 whole entry): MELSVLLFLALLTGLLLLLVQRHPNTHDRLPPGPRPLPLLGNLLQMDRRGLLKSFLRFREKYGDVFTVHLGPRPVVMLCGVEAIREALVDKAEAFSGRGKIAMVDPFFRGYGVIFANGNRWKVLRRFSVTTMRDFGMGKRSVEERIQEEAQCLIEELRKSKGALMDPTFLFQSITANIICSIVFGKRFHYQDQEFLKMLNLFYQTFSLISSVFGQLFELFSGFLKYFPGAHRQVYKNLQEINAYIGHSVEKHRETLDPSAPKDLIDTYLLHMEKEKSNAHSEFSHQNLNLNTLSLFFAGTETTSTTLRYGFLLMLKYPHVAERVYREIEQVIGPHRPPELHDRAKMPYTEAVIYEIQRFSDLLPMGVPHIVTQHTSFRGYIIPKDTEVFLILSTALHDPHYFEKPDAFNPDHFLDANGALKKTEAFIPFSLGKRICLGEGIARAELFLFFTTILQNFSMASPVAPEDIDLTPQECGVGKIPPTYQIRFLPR
Sequence of Bile salt export pump (O95342 whole entry): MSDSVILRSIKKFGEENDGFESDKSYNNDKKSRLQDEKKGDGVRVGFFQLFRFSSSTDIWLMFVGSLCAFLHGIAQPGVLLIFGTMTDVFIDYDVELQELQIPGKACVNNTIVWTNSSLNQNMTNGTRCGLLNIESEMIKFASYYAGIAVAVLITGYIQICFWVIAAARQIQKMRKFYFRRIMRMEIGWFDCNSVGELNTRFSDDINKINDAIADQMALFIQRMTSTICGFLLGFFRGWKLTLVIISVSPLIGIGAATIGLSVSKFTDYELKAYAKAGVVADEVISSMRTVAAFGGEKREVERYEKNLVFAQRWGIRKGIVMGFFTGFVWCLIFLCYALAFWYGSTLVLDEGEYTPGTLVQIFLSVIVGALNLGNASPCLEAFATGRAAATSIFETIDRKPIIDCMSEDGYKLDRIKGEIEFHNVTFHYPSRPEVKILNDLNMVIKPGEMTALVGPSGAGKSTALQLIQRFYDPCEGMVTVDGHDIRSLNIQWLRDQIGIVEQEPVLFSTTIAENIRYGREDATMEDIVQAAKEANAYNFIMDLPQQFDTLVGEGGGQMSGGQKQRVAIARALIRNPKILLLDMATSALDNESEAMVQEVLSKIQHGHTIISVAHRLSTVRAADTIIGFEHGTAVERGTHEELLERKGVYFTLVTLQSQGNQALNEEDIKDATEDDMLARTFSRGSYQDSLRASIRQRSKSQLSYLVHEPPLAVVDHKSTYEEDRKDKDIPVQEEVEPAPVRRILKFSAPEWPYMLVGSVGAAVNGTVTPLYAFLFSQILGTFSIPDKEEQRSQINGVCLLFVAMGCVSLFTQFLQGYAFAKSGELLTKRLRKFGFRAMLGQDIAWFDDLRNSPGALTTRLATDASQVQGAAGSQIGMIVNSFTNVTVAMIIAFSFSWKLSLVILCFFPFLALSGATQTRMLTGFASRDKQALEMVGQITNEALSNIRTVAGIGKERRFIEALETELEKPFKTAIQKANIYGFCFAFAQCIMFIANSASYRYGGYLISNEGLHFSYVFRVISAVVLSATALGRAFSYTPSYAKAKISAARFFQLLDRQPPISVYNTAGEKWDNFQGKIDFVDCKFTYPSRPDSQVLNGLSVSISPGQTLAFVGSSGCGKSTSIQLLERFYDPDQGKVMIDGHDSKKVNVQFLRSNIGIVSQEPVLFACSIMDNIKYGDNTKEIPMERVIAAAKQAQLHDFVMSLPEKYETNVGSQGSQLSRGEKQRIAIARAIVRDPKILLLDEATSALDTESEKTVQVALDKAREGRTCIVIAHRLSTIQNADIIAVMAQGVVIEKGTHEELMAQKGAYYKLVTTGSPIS
Sequence of MAP kinase-interacting serine/threonine-protein kinase 1 (Q9BUB5 whole entry): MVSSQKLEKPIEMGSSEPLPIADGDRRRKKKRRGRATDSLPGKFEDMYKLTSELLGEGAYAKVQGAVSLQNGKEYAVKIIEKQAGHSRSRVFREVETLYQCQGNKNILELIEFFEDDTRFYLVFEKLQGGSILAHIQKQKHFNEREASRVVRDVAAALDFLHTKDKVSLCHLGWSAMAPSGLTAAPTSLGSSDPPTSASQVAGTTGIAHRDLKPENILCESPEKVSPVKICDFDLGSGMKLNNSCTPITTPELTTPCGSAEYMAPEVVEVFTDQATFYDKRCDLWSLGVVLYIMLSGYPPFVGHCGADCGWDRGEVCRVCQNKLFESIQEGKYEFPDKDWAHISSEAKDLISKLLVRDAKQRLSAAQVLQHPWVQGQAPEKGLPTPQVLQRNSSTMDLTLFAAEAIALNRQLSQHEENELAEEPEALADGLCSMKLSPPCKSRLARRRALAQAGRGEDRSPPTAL

concentration at 5.5 h [1]: 206 nM
remaining at 10 min, 0.5 µM [2]: 92%
fraction unbound at 5 h, 10 µM [3]: 0.085
IC50 (Cytochrome P450 3A4 [5]): > 20 µM
Occ [6]: 37%
IC50 (Cytochrome P450 3A4 [7]): > 40 µM
Vd [8]: 11.8 L/kg
half-life [9]: 30 min
IC50 [10]: > 30 µM
MRT [12]: 11.6 h
AUC(0-inf) [13]: 1630 ng·h/mL
IC50 [14]: 160 nM
remaining at 10 min, 0.5 µM (Cytochrome P450): 87%
Kp at 5.75 h [15]: 43
Kp at 5.5 h [16]: 13
Vd [17]: 19.6 L/kg
IC50 (Cytochrome P450 3A4 [19]): > 40 µM
fraction unbound at 4 h, 1 µM [20]: 0.007
IC50 [22]: > 30 µM
Tmax [23]: 3 h
Cmax [24]: 5 nM
inhibition [25]: Active
MRT [26]: 6.9 h
solubility [27]: > 50 mg/mL
MRT [28]: 8.5 h
Cmax [29]: 780 nM
concentration at 5.25 h [30]: 32.6 µM
Papp A→B at 2 h, 3 µM [31]: 19.9 ×10⁻⁶ cm/s
IC50 (Cytochrome P450 2B6): > 20 µM
half-life [32]: 2650 min
Ki [33]: 0.31 nM
Cmax [34]: 19 nM
clearance [35]: 28.5 mL/min/kg
AUC(0-inf) [36]: 1180 ng·h/mL
solubility [37]: 700 µg/mL (≈ 1820 µM)
inhibition (Homo sapiens): 40%
Cmax [38]: 92 nM
clearance [40]: 41.2 mL/min/kg
half-life [42]: > 120 min
SMILES: CC(C)C[C@](C)(N)COc1ccc(-c2ccnc(C(F)F)c2)nc1C(F)F [PILAVAPADIN]
Activity (Rattus norvegicus [4]): 60%
Activity (Rattus norvegicus [11]): >60%
IC50 [18]: 390 nM
Efficacy (Rattus norvegicus [21]): 60%
IC50 (Bile salt export pump): > 30 µM
Efficacy (Rattus norvegicus [39]): 68%
Efficacy (Rattus norvegicus [41]): 25%

Reference: ChEMBL document CHEMBL5046296 (J Med Chem, 2022)
